Laboratory results from BigSolDB 2.1.

COc1ccc(C(=O)O)c(OC)c1OC
solubility (mole fraction)
Conditions | 278.15 K | 283.15 K | 288.15 K | 293.15 K | 298.15 K | 303.15 K | 308.15 K | 313.15 K | 318.15 K
in 2-butoxyethanol | 0.0838 | 0.0944 | 0.113 | 0.127 | 0.148 | 0.167 | 0.185 | 0.207 | 0.25
in 2-ethoxyethanol | 0.179 | 0.207 | 0.238 | 0.264 | 0.289 | 0.318 | 0.353 | 0.39 | 0.431
in 2-methoxyethanol | 0.11 | 0.127 | 0.154 | 0.168 | 0.194 | 0.213 | 0.233 | 0.26 | 0.283
in ethanol | 0.0482 | 0.0585 | 0.0733 | 0.0926 | 0.116 | 0.154 | 0.199 | 0.27 | 0.3
in ethyl acetate | 0.066 | 0.0792 | 0.0992 | 0.112 | 0.13 | 0.174 | 0.236 | 0.283 | 0.301
in ethylene glycol | 0.0165 | 0.0188 | 0.0227 | 0.0281 | 0.036 | 0.0421 | 0.0501 | 0.0635 | 0.0828
in isopropanol | 0.0261 | 0.0363 | 0.0496 | 0.069 | 0.0801 | 0.102 | 0.129 | 0.158 | 0.186
in isopropyl acetate | 0.0412 | 0.0495 | 0.0584 | 0.0692 | 0.0778 | 0.0892 | 0.0988 | 0.115 | 0.137
in n-butyl acetate | 0.047 | 0.0574 | 0.0673 | 0.0751 | 0.0832 | 0.0991 | 0.12 | 0.136 | 0.168
in n-propanol | 0.0312 | 0.0405 | 0.0538 | 0.072 | 0.082 | 0.104 | 0.129 | 0.161 | 0.189
in n-propyl acetate | 0.0357 | 0.0454 | 0.0549 | 0.0722 | 0.0829 | 0.106 | 0.13 | 0.162 | 0.189
in water | 0.000331 | 0.000419 | 0.000497 | 0.000553 | 0.000703 | 0.000892 | 0.00109 | 0.00134 | 0.00152
